Results: EP3443980A1, “COMPOUND FOR THE TREATMENT OF PATIENTS WITH LEPTIN-RESISTANT OBESITY, BARDET-BIEDL SYNDROME AND OTHER CILIOPATHIES” (Ciliocure Limited, priority 2017, dated 2019)

Tests used:
Type in all cases: in vivo
[1] = system: leptin-resistant obese mice carrying the M390R mutation in the Bbs1 gene (Bbs1^M390R); test: Body weight and food intake of leptin-resistant obese Bbs1 M390R mice (Experiment 2); details: mouse model for Bardet-Biedl syndrome with leptin resistance
From the text: Experiment 2: The purpose of the experiment is to study the effects of GLP-1 receptor agonists on • body weight and food intake of leptin-resistant obese mice carrying the M390R mutation in the Bbs1 gene (Bbs1^M390R) and on • body weight and food intake of lean wild type littermate controls, both groups fed ad libitum. In this particular experiment the GLP-1 receptor agonist used is acetyl-GLP-1(7-34)amide. The M390R mutation in the Bbs1 gene can also be found in human Bardet-Biedl syndrome.
Male 12-16 weeks old mice are housed in individual cages for 3-5 days to acclimate to single housing conditions before baseline body weight and 24-hour food intake is determined during 4 days. Then food intake and body weight is tested in response to treatment with acetyl-GLP-1(7-34)amide. […]
During the treatment period, mice continue to have free access to food. […] At the end of the 7-day treatment period, body composition is determined in live mice using nuclear magnetic resonance (NMR) tomography. Mice are then sacrificed and the weight of various organs and tissues including various fat depots, liver, kidneys, heart, lung and brain are measured. […]

[2] = system: mice carrying the M390R mutation in the Bbs1 gene (Bbs1^M390R); test: Retinal degeneration (rod-cone dystrophy, retinal cell apoptosis) in Bbs1 M390R mice (Experiment 3); details: the same mouse model for Bardet-Biedl syndrome
Protocol: Experiment 3: The purpose of the experiment is to study the effects of GLP-1 receptor agonists on • Development of rod-cone dystrophy in mice carrying the M390R mutation in the Bbs1 gene (Bbs1^M390R). In this particular experiment the GLP-1 receptor agonist used is acetyl-GLP-1(7-34)amide. The M390R mutation in the Bbs1 gene can also be found in human Bardet-Biedl syndrome.
Male Bbs1^M390R mice are used in the experiment. From postnatal day 6 to postnatal day 30 the experimental group is treated intraperitoneally with acetyl-GLP-1 (7-34)amide. Mice of the control group are treated during the same age period with vehicle.
Analysis of endpoints: comparison of control vs GLP-1 At the end of the treatment period, mice are investigated by use of electroretinography (ERG), optical coherence tomography (OCT) and histology.

BBS12^-/- mice = test: Apoptosis of photoreceptors in BBS12 model: retinal explants and BBS12-/- mice (Experiments 1a, 1b); details: another mouse model for Bardet-Biedl syndrome
Protocol: Experiment 1a: Effects of GLP-1 in ex-vivo model (retinal explants): In BBS12-deprived retinal explants and the Bbs12^/ murine model, impaired intraciliary transport results in protein retention in the endoplasmic reticulum. The protein overload activates a pro-apoptotic unfolded protein response leading to a specific Caspase12-mediated apoptosis of the photo-receptors. BBS12-deprived retinal explants are incubated with Ac-GLP-1 (7-34)amide and Caspase12-mediated apoptosis of the photo-receptors is compared to the apoptosis rate of BBS12-deprived retinal explants, which have been treated with the vehicle only.
• 15-day-old mice are sacrificed by decapitation, and the eyes are removed • First, the sclera is carefully removed, leaving the retinal pigmented epithelium attached to the eye ball. • Incisions are made at the edge of the cornea to remove cornea, lens, and hyaloid body. • Retinas are transferred, with retinal pigmented epithelium side down, to a culture membrane • Retina explants are maintained at 37 °C in a humidified 5% CO2 atmosphere. • Specific gene silencing with lentiviruses that carry a shRNA sequence for Bbs12 is performed. • Drugs are added to the culture medium […]

In the case of `CC[C@H](C)[C@H](NC(=O)[C@H](Cc1ccccc1)NC(=O)[C@H](CCC(=O)O)NC(=O)[C@H](CCCCN)NC(=O)[C@H](C)NC(=O)[C@H](C)NC(=O)[C@H](CCC(N)=O)NC(=O)CNC(=O)[C@H](CCC(=O)O)NC(=O)[C@H](CC(C)C)NC(=O)[C@H](Cc1ccc(O)cc1)NC(=O)[C@H](CO)NC(=O)[C@H](CO)NC(=O)[C@@H](NC(=O)[C@H](CC(=O)O)NC(=O)[C@H](CO)NC(=O)[C@@H](NC(=O)[C@H](Cc1ccccc1)NC(=O)[C@@H](NC(=O)CNC(=O)[C@H](CCC(=O)O)NC(=O)[C@H](C)NC(=O)[C@H](Cc1c[nH]cn1)NC(C)=O)[C@@H](C)O)[C@@H](C)O)C(C)C)C(=O)N[C@@H](C)C(=O)N[C@@H](Cc1c[nH]c2ccccc12)C(=O)N[C@@H](CC(C)C)C(=O)N[C@H](C(=O)N[C@@H](CCCCN)C(N)=O)C(C)C` [Ac-GLP-1 (7-34)amide, N-acetyl-GLP-1(7-34)amide], the food intake [1] is reported as “inhibit food intake”, the weight loss [1] is reported as “stimulate weight loss” and the “apoptosis of retinal cells” value [2] is reported as “inhibits apoptosis of retinal cells”. The “apoptosis of retinal cells” value (BBS12^-/- mice) was “inhibits apoptosis of retinal cells”.
